# Tested on: Staphylococcus aureus (Smith strain, ATCC™ 13709)
# Experiment: In vivo efficacy, acute lethal S. aureus infection in mice
# Conditions: ICR mice; i.p. one hour post infection; lowest dose tested; 100% protection
# Experimental: B. Efficacy: In vivo efficacy studies were performed on ICR mice (supplied by Charles River Laboratories, Wilmington, Mass.) having a bodyweight of 20±2 g. Mice (38) were inoculated i.p. with an LD90-100 dose (1×10^6 CFU/mouse) of Staphylococcus aureus (Smith strain, ATCC™ 13709) suspended in 0.5 mL of BHI containing 5% mucin. Compound 1 at doses 20, 30, 40, 50, 60 and 70 mg/kg (formulated in 20% propylene glycol/water for a total volume of 10 μL/g of weigth) was administered i.p. one hour post infection (5 mice for each concentration). Another group of 5 mice was treated i.v. with a 10 mg/kg dose of Vancomycin. A last group of 3 mice was administered vehicle only. Mortality was recorded for 7 days.
compound,measurement,value
"CC(=CC=CC=CC=CC=CC(C)C(OC1OC(C(=O)O)C(O)C(O)C1O)C(C)=CC(C)CCCC=CC(C)CC=CCCCN(C)C(=N)N)C(=O)NC1=C(O)CCC1=O (stereo not shown) [Compound 1, 3,4,5-trihydroxy-6-[1-[11-(2-hydroxy-5-oxocyclopent-1-enylcarbamoyl)-1-methyldodeca-2,4,6,8,10-pentaenyl]-2,4,10-trimethyl-16-(N-methyl-guanidino)-hexadeca-2,8,12-trienyloxy]-tetrahydropyran-2-carboxylic acid]","In vivo efficacy: S. aureus (Smith), protective dose",≦20 mg/kg

# From US20050215490A1, “Polyene polyketides and methods of treating bacterial infections” (Ecopia BioSciences, Inc., priority 2003, published 2005)
